Reference: US12655116B2, “Substituted isophthalic acid diamides” (Bayer Aktiengesellschaft, priority 2020, dated 2026)

Assays:
ABUTH [1] = test: Pre-emergence herbicidal action against ABUTH; type: in vivo, Abutilon theophrasti; details: Abutilon theophrasti, 504 h; for pest or weed control at 80 g/ha: scored visually after 3 weeks vs untreated controls (100% = plants have died, 0% = like control plants); for pest or weed control at 320 g/ha: Dosage: 320 g/ha, scored visually after 3 weeks; for pest or weed control at 320 g/ha / pest or weed control at 20 g/ha: 100% = plants have died, 0% = like control plants; for pest or weed control at 20 g/ha: dosage 20 g/ha, scored visually after 3 weeks vs untreated controls, read-out: Pre-emergence action against ABUTH (herbicidal activity in percent)
Procedure, shortened: (§1)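 Herbicidal effect was assessed 3 weeks after treatment by visual comparison with untreated controls, 100% denoting dead plants. Aqueous WP or EC preparations had been applied at 600 to 800 l/ha with 0.2% wetting agent to the soil covering freshly sown seeds.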

harmful plants = test: Comparative experiments: herbicidal post-emergence action versus compounds known from D1 (WO 2012/028579 A1); type: in vivo; set-up: key to Herbicidal action against ALOMY / Herbicidal action against AVEFA / Herbicidal action against LOLRI / Herbicidal action against MATIN / Herbicidal action against HORMU / Herbicidal action against ECHCG / Herbicidal action against SETVI / Herbicidal action against ABUTH / Herbicidal action against STEME / Herbicidal action against VIOTR / Herbicidal action against AMARE: % herbicidal action: 100 = plants died, 0 = like untreated control; details: 5 g a.i./ha
Description: (§2) Seeds of monocotyledonous and dicotyledonous weed and crop plants are laid out in sandy loam soil in wood-fiber pots, covered with soil and cultivated in a greenhouse under good growth conditions. 2 to 3 weeks after sowing, the test plants are treated at the one-leaf stage. The compounds of the invention, formulated in the form of wettable powders (WP) or as emulsion concentrates (EC), are then sprayed onto the green parts of the plants in the form of an aqueous suspension or emulsion at a water application rate equivalent to 600 to 800 l/ha, with addition of 0.2% wetting agent. After the test plants have been left to stand in the greenhouse under optimal growth conditions for about 3 weeks, the action of the preparations is assessed visually in comparison to untreated controls (herbicidal action in percent (%): 100% activity=the plants have died, 0% activity=like control plants). […] The tables below illustrate, in an illustrative manner, the post-emergence herbicidal action of the compounds of the invention, the herbicidal activity being stated in percent. In the experiments that follow, herbicidal action of numerous inventive compounds and the structurally closest compounds known from D1 (WO 2012/028579 A1) were compared under the above-specified conditions by the pre-emergence and post-emergence method. The example numbers given in the tables relate to the compounds disclosed in the respective documents.

PHBPU [2] = test: Post-emergence herbicidal action against PHBPU; type: in vivo, Pharbitis purpurea; details: Ipomoea purpurea, 504 h; for pest or weed control at 5 g/ha: dosage 5 g/ha; for pest or weed control at 20 g/ha: dosage 20 g/ha; for pest or weed control at 80 g/ha: dosage 80 g/ha
Procedure, shortened: (§3)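 Post-emergence greenhouse test; one-leaf stage, 2–3 wk post-sowing, sandy loam. Foliar spray of WP/EC in water, 600–800 l/ha, +0.2% wetting agent. Visual % action at ~3 wk vs untreated (100% = plants dead).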

CYPES [3] = test: Pre-emergence herbicidal action against CYPES; type: in vivo; details: Cyperus esculentus, 504 h; for pest or weed control at 20 g/ha / pest or weed control at 80 g/ha: scored visually after 3 weeks, 100% = plants have died, 0% = like control plants
From the text: Seeds of monocotyledonous and dicotyledonous weed plants and crop plants are laid out in sandy loam soil in wood-fiber pots and covered with soil. The compounds of the invention, formulated in the form of wettable powders (WP) or as emulsion concentrates (EC), are then applied to the surface of the covering soil in the form of an aqueous suspension or emulsion at a water application rate equivalent to 600 to 800 l/ha, with addition of 0.2% wetting agent. After the treatment, the pots are placed in a greenhouse and kept under good growth conditions for the trial plants. The damage to the test plants is scored visually after a test period of 3 weeks by comparison with untreated controls (herbicidal activity in percent (%): 100% activity=the plants have died, 0% activity=like control plants). […] The tables below illustrate, in an illustrative manner, the post-emergence herbicidal action of the compounds of the invention, the herbicidal activity being stated in percent.

CYPES [4] = test: Post-emergence herbicidal action against CYPES; type: in vivo, Cyperus esculentus; details: visual assessment about 3 weeks after treatment, 100% = plants have died, 0% = like control plants
Description: as §2, with “percent.” for “percent. In the experiments that follow, herbicidal action of numerous inventive compounds and the structurally closest compounds known from D1 (WO 2012/028579 A1) were compared under the above-specified conditions by the pre-emergence and post-emergence method. The example numbers given in the tables relate to the compounds disclosed in the respective documents.”

ABUTH [5] = test: Post-emergence herbicidal action against ABUTH; type: in vivo, Abutilon theophrasti; details: Abutilon theophrasti, 504 h, visual assessment about 3 weeks after treatment vs untreated controls; for pest or weed control at 5 g/ha: dosage 5 g/ha; for pest or weed control at 20 g/ha: dosage 20 g/ha; for pest or weed control at 80 g/ha: dosage 80 g/ha
Procedure, shortened: as §3

PHBPU [6] = test: Pre-emergence herbicidal action against PHBPU; type: in vivo, Pharbitis purpurea; details: Ipomoea purpurea, 504 h; for pest or weed control at 80 g/ha: dosage 80 g/ha; for pest or weed control at 320 g/ha: dosage 320 g/ha
Procedure, shortened: as §1

LOLRI = test: Pre-emergence herbicidal action against LOLRI; type: in vivo, Lolium rigidum; details: Lolium rigidum, 504 h
Procedure, shortened: as §1

CNC(=O)c1c(C(F)(F)F)ccc(C(=O)Nc2nnnn2C)c1Cl [Example 1-129]
90: Herbicidal action against ALOMY (harmful plants)
80: Herbicidal action against VIOTR (harmful plants; VIOTR)
80%: pest or weed control at 5 g/ha (PHBPU [2]) | Post-emergence action at 80 g/ha against CYPES in % (CYPES [4])
100%: pest or weed control at 80 g/ha (ABUTH [1]) | pest or weed control at 320 g/ha (ABUTH [1]) | pest or weed control at 20 g/ha (ABUTH [1]) | pest or weed control at 20 g/ha (PHBPU [2]) | pest or weed control at 80 g/ha (PHBPU [2]) | pest or weed control at 320 g/ha (CYPES [3]) | pest or weed control at 5 g/ha (ABUTH [5]) | pest or weed control at 20 g/ha (ABUTH [5]) | pest or weed control at 80 g/ha (ABUTH [5]) | pest or weed control at 320 g/ha (PHBPU [6]) | pest or weed control at 320 g/ha (LOLRI)
90%: pest or weed control at 20 g/ha (CYPES [3]) | pest or weed control at 80 g/ha (CYPES [3]) | pest or weed control at 80 g/ha (PHBPU [6]) | pest or weed control at 80 g/ha (LOLRI; 80 g/ha)
100: Herbicidal action against ABUTH (harmful plants; ABUTH) | Herbicidal action against ECHCG (harmful plants; ECHCG) | Herbicidal action against SETVI (harmful plants) | Herbicidal action against STEME (harmful plants; STEME)

Cn1nnnc1NC(=O)c1ccc(C(F)(F)F)c(C(N)=O)c1Cl [Example 1-338]
80%: pest or weed control at 20 g/ha (ABUTH [1]) | Post-emergence action at 20 g/ha against CYPES in % (CYPES [4]; 20 g/ha) | pest or weed control at 320 g/ha (PHBPU [6])
90%: pest or weed control at 80 g/ha (PHBPU [2]) | pest or weed control at 80 g/ha (CYPES [3]) | Post-emergence action at 80 g/ha against CYPES in % (CYPES [4]) | pest or weed control at 5 g/ha (ABUTH [5]) | pest or weed control at 20 g/ha (ABUTH [5]) | pest or weed control at 320 g/ha (LOLRI)
100%: pest or weed control at 80 g/ha (ABUTH [1]) | pest or weed control at 320 g/ha (ABUTH [1]) | pest or weed control at 320 g/ha (CYPES [3]) | pest or weed control at 80 g/ha (ABUTH [5])

CCn1nnnc1NC(=O)c1ccc(C(F)(F)F)c(C(=O)NC)c1Cl [Example 2-129]
100%: pest or weed control at 80 g/ha (ABUTH [1]) | pest or weed control at 320 g/ha (ABUTH [1]) | pest or weed control at 20 g/ha (ABUTH [1]) | pest or weed control at 20 g/ha (PHBPU [2]) | pest or weed control at 80 g/ha (PHBPU [2]) | pest or weed control at 20 g/ha (CYPES [3]) | pest or weed control at 80 g/ha (CYPES [3]) | pest or weed control at 320 g/ha (CYPES [3]) | pest or weed control at 5 g/ha (ABUTH [5]) | pest or weed control at 20 g/ha (ABUTH [5]) | pest or weed control at 80 g/ha (ABUTH [5]) | pest or weed control at 320 g/ha (PHBPU [6]) | pest or weed control at 320 g/ha (LOLRI)
80: Herbicidal action against HORMU (harmful plants; HORMU) | Herbicidal action against MATIN (harmful plants; MATIN)
90%: Post-emergence action at 80 g/ha against CYPES in % (CYPES [4]) | pest or weed control at 80 g/ha (PHBPU [6])
100: Herbicidal action against ALOMY (harmful plants) | Herbicidal action against AMARE (harmful plants; AMARE) | Herbicidal action against AVEFA (harmful plants; AVEFA) | Herbicidal action against SETVI (harmful plants)

CNC(=O)c1c(C(F)(F)F)ccc(C(=O)Nc2nnc(C)o2)c1Cl [Example 6-116]
90%: pest or weed control at 80 g/ha (PHBPU [2]) | pest or weed control at 5 g/ha (ABUTH [5])
80%: pest or weed control at 5 g/ha (PHBPU [2]) | pest or weed control at 20 g/ha (PHBPU [2]) | pest or weed control at 320 g/ha (PHBPU [6])
100%: pest or weed control at 80 g/ha (ABUTH [1]) | pest or weed control at 320 g/ha (ABUTH [1]) | pest or weed control at 20 g/ha (ABUTH [1]) | pest or weed control at 20 g/ha (CYPES [3]) | pest or weed control at 80 g/ha (CYPES [3]) | pest or weed control at 320 g/ha (CYPES [3]) | pest or weed control at 20 g/ha (ABUTH [5]) | pest or weed control at 80 g/ha (ABUTH [5]) | pest or weed control at 320 g/ha (LOLRI)
